Laboratory results from US10494375B2, “Antimicrobial compound” (priority 2016, dated 2019).
In brackets after ≈: the same amount, converted by molar mass. Where two headings read alike, the source gives them in different places. Where a SMILES comes first, the peptide text is derived from it. Bridges are numbered along the chain shown (N, C = ends). [ ]: non-standard residue; d: D form. The star is where a group is joined. Ileψ(thiazoline)Cys = CC[C@H](C)[C@H](N)C1=N[C@H](C(=O)*)CS1; dOrn = NCCC[C@@H](N)C(=O)O

Experiments:
E. faecium CCUG 37832 = assay: MIC determination by standardized microdilution test in Mueller-Hinton broth; format: cell-based, Enterococcus faecium
Description: (§1) MBL-AB01 was tested against a panel of Gram-negative and Gram-positive pathogens. MICs for all Gram-positive and Gram-negative bacterial strains were determined by standardized microdilution tests using Mueller-Hinton broth (Acumedia). Bacterial inoculums containing 5×10^5 CFU/ml were incubated for 19 h at 35° C. in the presence of different antibiotic concentrations according to Clinical and Laboratory Standards Institute protocols. The bacterial strains were obtained from the culture collections ATCC (American Type Culture Collection), NCTC (National Collection of Type Cultures) and CCUG (culture collection university of Göteborg Sweden).

E. faecium CTC 492 = assay: as above; format: cell-based, Enterococcus faecium
Description: as §1

S. aureus NCTC 6571 = assay: as above; format: cell-based
Description: as §1

[1] = test system: S. aureus ATCC 43300 (MRSA); assay: as above; format: cell-based
Description: as §1

S. aureus ATCC 29213 = assay: as above; format: cell-based
Description: as §1

M. luteus, ATCC 9341 = assay: as above; format: cell-based, Micrococcus luteus
Description: as §1

[2] = test system: IMR90 Human Lung Fibroblast (ATCC CCL-186) cells; assay: In vitro cytotoxicity, CellTiter-GLO 2.0 viability assay; format: cell-based; conditions: IMR-90, 24 hours exposure, viability relative to control wells
Description: Xantolipin was obtained from Shaghai Jiao Tong University, China.
IMR90 cells were grown in DMEM—low glucose (Sigma) supplemented with 2 mM L-Glutamine, 1% MEM NEAA (Sigma), 1 mM Sodium Pyruvate, 10 mM HEPES and 100 U/mL Pen-Strep. The cells were subcultured twice or thrice a week at ratios between 1:2 and 1:8, depending on confluency. […] The microplates with cell suspension were shaked at 1600 rpm with 2.5 mm amplitude (Bioshake) for 20 seconds after seeding. […] The microplates with the IMR90 cells were incubated at 37° C. with 5% CO2 atmosphere. […] The serial dilutions with the compounds were further diluted in cell culture medium and transferred to the assay wells, giving a total DMSO concentration in the assay wells of 0.6%. After exposure, the assay plates with the IMR90 cells were further incubated at 37° C. with 5% CO2 atmosphere for 24 hours. The viability of the cells after incubation was measured using the Promega CellTiter-GLO 2.0 viability assay.

[3] = footnote of Table 1: resistance profile of Enterococcus faecium CCUG37832, read-out: Mic
[4] = Enterococcus faecium, CCUG37832, E. faecium CCUG 37832 (multiresistant, vanA-positive clinical isolate), 19 h at 35° C., read-out: MIC
[5] = Enterococcus faecium, CTC492, E. faecium CTC 492, 19 h at 35° C., read-out: MIC
[6] = Staphylococcus aureus, NCTC6571, S. aureus NCTC 6571, 19 h at 35° C., read-out: MIC
[7] = Staphylococcus aureus, S. aureus ATCC 43300 (MRSA), 19 h at 35° C., read-out: MIC
[8] = Staphylococcus aureus, ATCC29213, S. aureus ATCC 29213, 19 h at 35° C., read-out: MIC
[9] = Micrococcus luteus, ATCC9341, M. luteus, ATCC 9341, 19 h at 35° C., read-out: MIC

`CC[C@H]1OC(=O)[C@H](C)[C@@H](O[C@H]2C[C@@](C)(OC)[C@@H](O)[C@H](C)O2)[C@H](C)[C@@H](O[C@@H]2O[C@H](C)C[C@H](N(C)C)[C@H]2O)[C@](C)(O)C[C@@H](C)C(=O)[C@H](C)[C@@H](O)[C@]1(C)O` [erythromycin] was tested. Which MIC (E. faecium CCUG 37832; [3]) did it give?
Its MIC is greater than 20 µg/mL.

With `CC1(C)S[C@@H]2[C@H](NC(=O)[C@H](N)c3ccccc3)C(=O)N2[C@H]1C(=O)O` [Ampicillin] as the molecule, how does the MIC (E. faecium CCUG 37832; [3]) read?
Its MIC is 20 µg/mL (≈ 57.2 µM).

With `CN[C@@H]1[C@H](O)[C@H](NC)[C@H]2O[C@@]3(O)C(=O)C[C@@H](C)O[C@H]3O[C@@H]2[C@H]1O` [Spectinomycin] as the molecule, how does the MIC (E. faecium CCUG 37832; [3]) read?
Its MIC is greater than 8 µg/mL.

Which MIC (E. faecium CCUG 37832; [3]) does the source give for `CC[C@H](C)[C@H](N)C1=N[C@H](C(=O)N[C@@H](CC(C)C)C(=O)N[C@H](CCC(=O)O)C(=O)N[C@H](C(=O)N[C@H]2CCCCNC(=O)[C@H](CC(N)=O)NC(=O)[C@@H](CC(=O)O)NC(=O)[C@H](Cc3cnc[nH]3)NC(=O)[C@@H](Cc3ccccc3)NC(=O)[C@H]([C@@H](C)CC)NC(=O)[C@@H](CCCN)NC2=O)[C@@H](C)CC)CS1` [Bacitracin] ({Ileψ(thiazoline)Cys}-L[dE]IK[dOrn]I[dF]H[dD]N; lactam 4-C) here?
Its MIC is greater than 8 µg/mL.

How did the MIC (E. faecium CCUG 37832; [3]) turn out when `CN[C@@H]1[C@@H](O[C@H]2O[C@H](CO)[C@@H](N)[C@H](O)[C@H]2O)OC2C[C@@H](N)[C@@H](O[C@H]3[C@H](O)[C@@H](O)[C@H](N)C[C@@H]3N)OC2[C@@H]1O` (stereo partly shown) [Apramycin] was run?
Its MIC is greater than 20 µg/mL.

For `N[C@@H]1CON=C1O` [Cycloserine], which MIC (E. faecium CCUG 37832; [3]) is on record?
The MIC was greater than 8 µg/mL.

With `CCC[C@@H]1C[C@@H](C(=O)N[C@@H]([C@H]2O[C@H](SC)[C@H](O)[C@@H](O)[C@H]2O)[C@@H](C)O)N(C)C1` [Lincomycin] as the molecule, how does the MIC (E. faecium CCUG 37832; [3]) read?
Its MIC is greater than 10 µg/mL.

Which results are given for Gentamicin?
MIC (E. faecium CCUG 37832; E. faecium CCUG 37832 (multiresistant, vanA-positive clinical isolate), 19 h at 35° C.): 16 µg/mL; MIC (E. faecium CTC 492; E. faecium CTC 492, 19 h at 35° C.): 16 µg/mL; MIC (S. aureus NCTC 6571; S. aureus NCTC 6571, 19 h at 35° C.): 4 µg/mL; MIC ([1]; S. aureus ATCC 43300 (MRSA), 19 h at 35° C.): 16 µg/mL; MIC (S. aureus ATCC 29213; S. aureus ATCC 29213, 19 h at 35° C.): 4 µg/mL; MIC (M. luteus, ATCC 9341; M. luteus, ATCC 9341, 19 h at 35° C.): 4 µg/mL

With `COc1c(Cl)ccc2c(=O)c3c(O)c4c5c(c3oc12)OCO[C@@H]5C[C@@H]1C(=O)c2cc(C)[nH]c(=O)c2C(=O)[C@]41O` [Xantholipin] as the molecule, how does the EC50 [2] read?
Its EC50 is 1 µg/mL (≈ 1.81 µM).

`CN(C)[C@@H]1C(O)=C(C(N)=O)C(=O)[C@@]2(O)C(O)=C3C(=O)c4c(O)ccc(Cl)c4[C@@](C)(O)[C@H]3C[C@@H]12` [Chlortetracycline] was tested. Which MIC (E. faecium CCUG 37832; [3]) did it give?
The MIC was greater than 10 µg/mL.

How did the MIC (E. faecium CCUG 37832; Enterococcus faecium, CCUG37832) turn out when `CN[C@H](CC(C)C)C(=O)N[C@H]1C(=O)N[C@@H](CC(N)=O)C(=O)N[C@H]2C(=O)N[C@H]3C(=O)N[C@H](C(=O)N[C@H](C(=O)O)c4cc(O)cc(O)c4-c4cc3ccc4O)[C@H](O)c3ccc(c(Cl)c3)Oc3cc2cc(c3O[C@@H]2O[C@H](CO)[C@@H](O)[C@H](O)[C@H]2O[C@H]2C[C@](C)(N)[C@H](O)[C@H](C)O2)Oc2ccc(cc2Cl)[C@H]1O` [Vancomycin] was run?
The MIC was greater than 20 µg/mL.

What about the MIC (E. faecium CCUG 37832; Enterococcus faecium, CCUG37832, 19 h) of the same molecule?
Its MIC is greater than 16 µg/mL.

What about the MIC (E. faecium CTC 492; Enterococcus faecium, CTC492, 19 h) of the same molecule?
Its MIC is 1 µg/mL (≈ 0.69 µM).

And the MIC (S. aureus NCTC 6571; Staphylococcus aureus, NCTC6571, 19 h)?
Its MIC is 2 µg/mL (≈ 1.38 µM).

What about the MIC ([1]; Staphylococcus aureus, 19 h) of the same molecule?
Its MIC is 2 µg/mL (≈ 1.38 µM).

And the MIC (S. aureus ATCC 29213; Staphylococcus aureus, ATCC29213, 19 h)?
Its MIC is 2 µg/mL (≈ 1.38 µM).

And the MIC (M. luteus, ATCC 9341; Micrococcus luteus, ATCC9341, 19 h)?
Its MIC is 1 µg/mL (≈ 0.69 µM).

Which results are given for `[H]/N=C(/N)N[C@H]1[C@H](O)[C@@H](O)[C@H](O[C@@H]2O[C@@H](C)[C@](O)(C=O)[C@H]2O[C@@H]2O[C@@H](CO)[C@H](O)[C@@H](O)[C@@H]2NC)[C@@H](N/C(N)=N\[H])[C@@H]1O` [Streptomycin]?
MIC (E. faecium CCUG 37832; [4]): > 16 µg/mL; MIC (E. faecium CTC 492; [5]): > 16 µg/mL; MIC (S. aureus NCTC 6571; [6]): 16 µg/mL (≈ 27.5 µM); MIC [1, 7]: 16 µg/mL (≈ 27.5 µM); MIC (S. aureus ATCC 29213; [8]): 16 µg/mL (≈ 27.5 µM); MIC (M. luteus, ATCC 9341; [9]): 8 µg/mL (≈ 13.8 µM)

What does the source list for `CCCCCCCCCC(=O)N[C@@H](Cc1c[nH]c2ccccc12)C(=O)N[C@H](CC(N)=O)C(=O)N[C@@H](CC(=O)O)C(=O)N[C@@H]1C(=O)NCC(=O)N[C@@H](CCCN)C(=O)N[C@@H](CC(=O)O)C(=O)N[C@H](C)C(=O)N[C@@H](CC(=O)O)C(=O)NCC(=O)N[C@H](CO)C(=O)N[C@@H]([C@H](C)CC(=O)O)C(=O)N[C@@H](CC(=O)c2ccccc2N)C(=O)O[C@@H]1C` [Daptomycin]?
MIC (E. faecium CCUG 37832; [4]): > 16 µg/mL; MIC (E. faecium CTC 492; [5]): > 16 µg/mL; MIC (S. aureus NCTC 6571; [6]): 4 µg/mL (≈ 2.47 µM); MIC [1, 7]: 4 µg/mL (≈ 2.47 µM); MIC (S. aureus ATCC 29213; [8]): 4 µg/mL (≈ 2.47 µM); MIC (M. luteus, ATCC 9341; [9]): 0.5 µg/mL (≈ 0.309 µM)
